Measured values as given in ChEMBL document CHEMBL4033685, “C21-steroidal pregnane sapogenins and their derivatives as anti-inflammatory agents” (Bioorg Med Chem, 2017).
pEC50: −log10 of the molar value. The source made the active and inactive calls. No cut-off for these calls is given here.

Legend:
[1] = biological target: T1, Toll-like receptor 4 (Homo sapiens, UniProt O00206); assay: Antagonist activity at TLR4 (unknown origin) expressed in human AD293 cells assessed as inhibition of LPS/ATP-stimulated TLR4/NF-kB signaling pathway at 10 uM after 16 hrs by luciferase reporter gene assay; type: cell-based
[2] = test system: AD293; assay: Cytotoxicity against human AD293 cells assessed as reduction in cell viability at 10 uM after 24 hrs by methylene blue dye based spectrophotometric method; conditions: ad293, 24 h
[3] = biological target: T1, Toll-like receptor 4; assay: Antagonist activity at TLR4 (unknown origin) expressed in human AD293 cells assessed as inhibition of LPS/ATP-stimulated TLR4/NF-kB signaling pathway after 16 hrs by luciferase reporter gene assay; type: cell-based
[4] = organism: Homo sapiens; assay: Inhibition of TNFalpha-stimulated NF-kB signaling pathway (unknown origin) expressed in human AD293 cells after 4 hrs by luciferase reporter gene assay; type: cell-based
[5] = test system: AD293; assay: Cytotoxicity against human AD293 cells assessed as reduction in cell viability after 24 hrs by methylene blue dye based spectrophotometric method; conditions: ad293, 24 h

T1 sequence (O00206 whole entry): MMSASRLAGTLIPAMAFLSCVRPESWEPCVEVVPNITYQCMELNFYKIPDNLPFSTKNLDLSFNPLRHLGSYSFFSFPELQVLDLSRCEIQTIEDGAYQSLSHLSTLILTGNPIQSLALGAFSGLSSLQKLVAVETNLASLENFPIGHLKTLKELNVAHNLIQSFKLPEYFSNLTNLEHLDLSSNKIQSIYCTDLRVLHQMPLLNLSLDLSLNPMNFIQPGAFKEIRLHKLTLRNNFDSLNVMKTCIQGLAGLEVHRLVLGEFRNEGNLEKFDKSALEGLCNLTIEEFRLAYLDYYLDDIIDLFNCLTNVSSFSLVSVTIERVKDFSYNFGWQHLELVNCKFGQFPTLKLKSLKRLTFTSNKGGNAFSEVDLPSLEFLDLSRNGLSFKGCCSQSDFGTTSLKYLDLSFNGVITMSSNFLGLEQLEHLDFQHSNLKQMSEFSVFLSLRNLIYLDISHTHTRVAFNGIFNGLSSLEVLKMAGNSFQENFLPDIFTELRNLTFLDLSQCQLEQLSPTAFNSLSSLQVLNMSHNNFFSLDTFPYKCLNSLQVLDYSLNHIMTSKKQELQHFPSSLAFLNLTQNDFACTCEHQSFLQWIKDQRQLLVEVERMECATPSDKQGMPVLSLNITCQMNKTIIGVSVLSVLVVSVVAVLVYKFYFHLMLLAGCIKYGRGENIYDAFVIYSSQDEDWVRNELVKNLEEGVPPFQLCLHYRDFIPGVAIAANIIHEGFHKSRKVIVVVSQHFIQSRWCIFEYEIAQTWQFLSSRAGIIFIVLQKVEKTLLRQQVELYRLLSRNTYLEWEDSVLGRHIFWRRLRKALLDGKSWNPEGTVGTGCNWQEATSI

SMILES | inhibition [1] | Activity [2] | pEC50 [3] | EC10 [4] [µM] | EC10 [5] [µM] | CC10 [5] [µM]
COc1ccc(/C=C/C(=O)O[C@H]2CC[C@@]3(C)C(=CC[C@]4(O)[C@@H]3C[C@@H](OC(=O)/C=C/c3ccccc3)[C@@]3(C)[C@]4(O)CC[C@@]3(O)C(C)=O)C2)cc1 | inactive | Toxic | – | – | – | –
CC(=O)[C@]1(O)CC[C@@]2(O)[C@]1(C)[C@H](OC(=O)/C=C(\C)C(C)C)C[C@@H]1[C@@]3(C)CCC(=O)CC3=CC[C@]12O | – | – | 4.93 | > 10 | > 10 | –
CC(=O)[C@]1(O)CC[C@@]2(O)[C@]1(C)[C@H](OC(=O)c1ccc(O)cc1)C[C@@H]1[C@@]3(C)CC[C@H](O)CC3=CC[C@]12O | inactive | Toxic | – | – | – | –
CC(=O)O[C@H]1CC[C@@]2(C)C(=CC[C@]3(O)[C@@H]2C[C@@H](OC(=O)/C=C/c2ccccc2)[C@@]2(C)[C@]3(O)CC[C@@]2(O)C(C)=O)C1 | inactive | Toxic | – | – | – | –
CC(=O)[C@]1(OC(=O)/C=C/c2ccc([N+](=O)[O-])cc2)CC[C@@]2(O)[C@]1(C)[C@H](OC(=O)c1ccc(O)cc1)C[C@@H]1[C@@]3(C)CC[C@H](OC(=O)/C=C/c4ccc([N+](=O)[O-])cc4)CC3=CC[C@]12O | inactive | Toxic | – | – | – | –
CC(=O)[C@]1(O)CC[C@@]2(O)[C@]1(C)[C@H](OC(=O)/C=C(\C)C(C)C)C[C@@H]1[C@@]3(C)CC[C@H](Cl)CC3=CC[C@]12O | – | – | 4.92 | > 10 | – | > 10
CC(=O)[C@]1(OC(=O)c2ccc(Cl)nc2)CC[C@@]2(O)[C@]1(C)[C@H](OC(=O)c1ccc(O)cc1)C[C@@H]1[C@@]3(C)CC[C@H](OC(=O)c4ccc(Cl)nc4)CC3=CC[C@]12O | inactive | Toxic | – | – | – | –
CC(=O)[C@]1(O)CC[C@@]2(O)[C@]1(C)[C@H](OC(=O)c1ccc(O)cc1)C[C@@H]1[C@@]3(C)CCC(=O)CC3=CC[C@]12O | inactive | Toxic | – | – | – | –
COc1cc(/C=C/C(=O)O[C@H]2CC[C@@]3(C)C(=CC[C@]4(O)[C@@H]3C[C@@H](OC(=O)c3ccc(O)cc3)[C@@]3(C)[C@]4(O)CC[C@@]3(OC(=O)/C=C/c3cc(OC)c(OC)c(OC)c3)C(C)=O)C2)cc(OC)c1OC | inactive | Toxic | – | – | – | –
COc1ccc(/C=C/C(=O)O[C@H]2CC[C@@]3(C)C(=CC[C@]4(O)[C@@H]3C[C@H]3O[C@H](C)[C@]5(OC(=O)/C=C/c6ccccc6)CC[C@@]4(O)[C@]35C)C2)cc1 | inactive | Toxic | – | – | – | –
CC(=O)[C@]1(O)CC[C@@]2(O)[C@]1(C)[C@H](OC(=O)/C=C/c1ccccc1)C[C@@H]1[C@@]3(C)CC[C@H](O)CC3=CC[C@]12O | inactive | Toxic | – | – | – | –
C[C@H]1O[C@@H]2C[C@@H]3[C@@]4(C)CC[C@H](OC(=O)/C=C/c5ccccc5)CC4=CC[C@@]3(O)[C@@]3(O)CC[C@]1(OC(=O)/C=C/c1ccccc1)[C@@]23C | inactive | Toxic | – | – | – | –
CC(=O)[C@]1(O)CC[C@@]2(O)[C@]1(C)[C@H](OC(=O)c1ccc(O)cc1)C[C@@H]1[C@@]3(C)CC[C@H](Br)CC3=CC[C@]12O | inactive | Toxic | – | – | – | –
CC(=O)[C@]1(OC(=O)c2ccc([N+](=O)[O-])cc2)CC[C@@]2(O)[C@]1(C)[C@H](OC(=O)c1ccc(O)cc1)C[C@@H]1[C@@]3(C)CC[C@H](OC(=O)c4ccc([N+](=O)[O-])cc4)CC3=CC[C@]12O | inactive | Toxic | – | – | – | –
COc1cc(/C=C/C(=O)O[C@H]2CC[C@@]3(C)C(=CC[C@]4(O)[C@@H]3C[C@H]3O[C@H](C)[C@]5(OC(=O)/C=C/c6ccccc6)CC[C@@]4(O)[C@]35C)C2)cc(OC)c1OC | inactive | Toxic | – | – | – | –
CC(=O)[C@]1(O)CC[C@]23OC(C)(C)O[C@]24CC=C2C[C@@H](O)CC[C@]2(C)[C@H]4C[C@@H](OC(=O)c2ccc(O)cc2)[C@@]31C | inactive | Toxic | – | – | – | –
CCC(=O)O[C@H]1CC[C@@]2(C)C(=CC[C@]3(O)[C@@H]2C[C@@H](OC(=O)c2ccc(O)cc2)[C@@]2(C)[C@]3(O)CC[C@@]2(OC(=O)CC)C(C)=O)C1 | inactive | Toxic | – | – | – | –
C[C@H]1O[C@@H]2C[C@@H]3[C@@]4(C)CC[C@H](OC(=O)/C=C/c5ccc([N+](=O)[O-])cc5)CC4=CC[C@@]3(O)[C@@]3(O)CC[C@]1(OC(=O)/C=C/c1ccccc1)[C@@]23C | inactive | Toxic | – | – | – | –
C[C@@H](OC(=O)c1cccnc1)[C@]1(O)CC[C@@]2(O)[C@]1(C)[C@H](OC(=O)/C=C/c1ccccc1)C[C@@H]1[C@@]3(C)CC[C@H](OC(=O)/C=C/c4ccc([N+](=O)[O-])cc4)CC3=CC[C@]12O | – | – | 4.85 | > 10 | – | > 10
CC(=O)[C@]1(O)CC[C@@]2(O)[C@]1(C)[C@H](OC(=O)/C=C/c1ccccc1)C[C@@H]1[C@@]3(C)CC[C@H](OC(=O)/C=C/c4ccc([N+](=O)[O-])cc4)CC3=CC[C@]12O | inactive | Toxic | – | – | – | –
C[C@H]1O[C@@H]2C[C@@H]3[C@@]4(C)CC[C@H](O)CC4=CC[C@@]3(O)[C@@]3(O)CC[C@]1(OC(=O)/C=C/c1ccccc1)[C@@]23C | inactive | Toxic | – | – | – | –
COc1cc(/C=C/C(=O)O[C@H]2CC[C@@]3(C)C(=CC[C@]4(O)[C@@H]3C[C@@H](OC(=O)/C=C/c3ccccc3)[C@@]3(C)[C@]4(O)CC[C@@]3(O)C(C)=O)C2)cc(OC)c1OC | inactive | Toxic | – | – | – | –
CC(=O)[C@]1(OS(C)(=O)=O)CC[C@@]2(O)[C@]1(C)[C@H](OC(=O)c1ccc(O)cc1)C[C@@H]1[C@@]3(C)CC[C@H](OS(C)(=O)=O)CC3=CC[C@]12O | inactive | Toxic | – | – | – | –
CC(=O)[C@]1(OC(=O)c2cccc3ccccc23)CC[C@@]2(O)[C@]1(C)[C@H](OC(=O)c1ccc(O)cc1)C[C@@H]1[C@@]3(C)CC[C@H](OC(=O)c4cccc5ccccc45)CC3=CC[C@]12O | inactive | Toxic | – | – | – | –
CC(=O)[C@]1(O)CC[C@@]2(O)[C@]1(C)[C@H](OC(=O)/C=C(\C)C(C)C)C[C@@H]1[C@@]3(C)CC[C@H](O)CC3=CC[C@]12O [CAUDATIN] | inactive | Toxic | – | – | – | –
C[C@@H](OC(=O)c1cccnc1)[C@]1(O)CC[C@@]2(O)[C@]1(C)[C@H](OC(=O)/C=C/c1ccccc1)C[C@@H]1[C@@]3(C)CC[C@H](OC(=O)c4ccccc4)CC3=CC[C@]12O | – | – | 4.96 | > 10 | – | > 10
CC(=O)[C@]1(O)CC[C@@]2(O)[C@]1(C)[C@H](OC(=O)/C=C(\C)C(C)C)C[C@@H]1[C@@]3(C)CCC(OC(=O)CCl)CC3=CC[C@]12O (stereo partly drawn) | inactive | Toxic | – | – | – | –
CC(O)[C@]1(O)CC[C@@]2(O)[C@]1(C)[C@H](OC(=O)c1ccc(O)cc1)C[C@@H]1[C@@]3(C)CC[C@H](O)CC3=CC[C@]12O (stereo partly drawn) | inactive | Toxic | – | – | – | –
C[C@@H](OC(=O)c1cccnc1)[C@]1(O)CC[C@@]2(O)[C@]1(C)[C@H](OC(=O)/C=C/c1ccccc1)C[C@@H]1[C@@]3(C)C=CC(=O)C=C3C=C[C@]12O | – | – | 5.20 | > 10 | – | > 10
